{"source": "the NIST ThermoML archive (doi:10.1021/je800934r)", "test": "mn = molality of the nth substance listed, in mol/kg", "settings": "101 kPa, Liquid; for viscosity: Capillary tube (Ostwald / Ubbelohde) method; for speed of sound: Pulse-echo method; for mass density: Vibrating tube method", "note": "Numbers after ± are expanded uncertainties."}
{"compound": "CCCCCCCCCCCCc1ccccc1S(=O)(=O)[O-].[Na+]", "note": "[sodium dodecylbenzenesulfonate (ILL DEFINED!)] + O", "values": [{"measurement": "viscosity", "setting": "298.15 K, m1 = 0.05", "value": "0.999 ± 0.011", "unit": "mPa·s"}, {"measurement": "viscosity", "setting": "298.15 K, m1 = 0.1", "value": "1.106 ± 0.011", "unit": "mPa·s"}, {"measurement": "speed of sound", "setting": "298.15 K, m1 = 0.05", "value": "1498.7 ± 1.6", "unit": "m/s"}, {"measurement": "speed of sound", "setting": "298.15 K, m1 = 0.1", "value": "1500 ± 1.6", "unit": "m/s"}, {"measurement": "mass density", "setting": "298.15 K, m1 = 0.05", "value": "999.92 ± 0.4", "unit": "kg/m3"}, {"measurement": "mass density", "setting": "298.15 K, m1 = 0.1", "value": "1002.75 ± 0.41", "unit": "kg/m3"}, {"measurement": "viscosity", "setting": "308.15 K, m1 = 0.05", "value": "0.795 ± 0.009", "unit": "mPa·s"}, {"measurement": "viscosity", "setting": "308.15 K, m1 = 0.1", "value": "0.868 ± 0.01", "unit": "mPa·s"}, {"measurement": "speed of sound", "setting": "308.15 K, m1 = 0.05", "value": "1522.7 ± 1.6", "unit": "m/s"}, {"measurement": "speed of sound", "setting": "308.15 K, m1 = 0.1", "value": "1523.5 ± 1.6", "unit": "m/s"}, {"measurement": "mass density", "setting": "308.15 K, m1 = 0.05", "value": "996.76 ± 0.4", "unit": "kg/m3"}, {"measurement": "mass density", "setting": "308.15 K, m1 = 0.1", "value": "999.44 ± 0.4", "unit": "kg/m3"}]}
